Test results as given in ChEMBL document CHEMBL5038672, “Conversion of a PROTAC Mutant Huntingtin Degrader into Small-Molecule Hydrophobic Tags Focusing on Drug-like Properties” (ACS Med Chem Lett, 2022).
Values belong to the compound of their own block, whether it stands above or below them. The source made the active and inactive calls. The rule behind the calls is not given here.

Assays:
HeLa [1] = assay: Induction of EGFP fused Htt Q145 mutant exon 1 (unknown origin) degradation expressed in human HeLa cells assessed as HSP70/CHIP recruitment based proteosome mediated mHtt exon 1-Q145 degradation at 10 uM preincubated with geldanamycin for 6 hrs and measured after 24 hrs by Western blot analysis; assay type: cell-based
[2] = Apparent permeability across basolateral to apical side in human Caco-2 cells at 10 uM; assay type: ADME, cell-based; conditions: for Papp B→A at 10 µM: Caco-2
HeLa [3] = assay: Induction of EGFP fused Htt Q145 mutant exon 1 (unknown origin) degradation expressed in human HeLa cells assessed as HSP70/CHIP recruitment based proteosome mediated mHtt exon 1-Q145 degradation at 5 uM measured after 24 hrs by Western blot analysis; assay type: cell-based
[4] = Efflux ratio of apparent permeability across basolateral to apical side over apical to basolateral side in human Caco-2 cells at 10 uM; assay type: ADME, cell-based; conditions: for efflux ratio at 10 µM: Caco-2
HeLa [5] = assay: Induction of EGFP fused Htt Q145 mutant exon 1 (unknown origin) degradation expressed in human HeLa cells assessed as HSP70/CHIP recruitment based proteosome mediated decrease in aggregate foci at 10 uM incubated for 24 hrs by Hoechst33342 staining based fluorescence microscopic analysis; assay type: cell-based; set-up: scale not given: the % may be the effect or the level left
HeLa [6] = assay: Induction of EGFP fused Htt Q145 mutant exon 1 (unknown origin) degradation expressed in human HeLa cells assessed as HSP70/CHIP recruitment based proteosome mediated mHtt exon 1-Q145 degradation at 10 uM measured after 24 hrs by Western blot analysis in the presence of bortezomib; assay type: cell-based
[7] = tested on: Huntingtin (Homo sapiens), P42858 [UNDEFINED MUTATION]; assay: Induction of mutant Htt (unknown origin) degradation expressed in human fibroblasts cells assessed as HSP70/CHIP recruitment based proteosome mediated mHtt degradation by western blot analysis; assay type: cell-based; conditions: Fibroblast
Huntingtin (Homo sapiens), P42858 [UNDEFINED MUTATION], sequence (P42858 whole entry, looked up, change not shown, the tested form may be a part): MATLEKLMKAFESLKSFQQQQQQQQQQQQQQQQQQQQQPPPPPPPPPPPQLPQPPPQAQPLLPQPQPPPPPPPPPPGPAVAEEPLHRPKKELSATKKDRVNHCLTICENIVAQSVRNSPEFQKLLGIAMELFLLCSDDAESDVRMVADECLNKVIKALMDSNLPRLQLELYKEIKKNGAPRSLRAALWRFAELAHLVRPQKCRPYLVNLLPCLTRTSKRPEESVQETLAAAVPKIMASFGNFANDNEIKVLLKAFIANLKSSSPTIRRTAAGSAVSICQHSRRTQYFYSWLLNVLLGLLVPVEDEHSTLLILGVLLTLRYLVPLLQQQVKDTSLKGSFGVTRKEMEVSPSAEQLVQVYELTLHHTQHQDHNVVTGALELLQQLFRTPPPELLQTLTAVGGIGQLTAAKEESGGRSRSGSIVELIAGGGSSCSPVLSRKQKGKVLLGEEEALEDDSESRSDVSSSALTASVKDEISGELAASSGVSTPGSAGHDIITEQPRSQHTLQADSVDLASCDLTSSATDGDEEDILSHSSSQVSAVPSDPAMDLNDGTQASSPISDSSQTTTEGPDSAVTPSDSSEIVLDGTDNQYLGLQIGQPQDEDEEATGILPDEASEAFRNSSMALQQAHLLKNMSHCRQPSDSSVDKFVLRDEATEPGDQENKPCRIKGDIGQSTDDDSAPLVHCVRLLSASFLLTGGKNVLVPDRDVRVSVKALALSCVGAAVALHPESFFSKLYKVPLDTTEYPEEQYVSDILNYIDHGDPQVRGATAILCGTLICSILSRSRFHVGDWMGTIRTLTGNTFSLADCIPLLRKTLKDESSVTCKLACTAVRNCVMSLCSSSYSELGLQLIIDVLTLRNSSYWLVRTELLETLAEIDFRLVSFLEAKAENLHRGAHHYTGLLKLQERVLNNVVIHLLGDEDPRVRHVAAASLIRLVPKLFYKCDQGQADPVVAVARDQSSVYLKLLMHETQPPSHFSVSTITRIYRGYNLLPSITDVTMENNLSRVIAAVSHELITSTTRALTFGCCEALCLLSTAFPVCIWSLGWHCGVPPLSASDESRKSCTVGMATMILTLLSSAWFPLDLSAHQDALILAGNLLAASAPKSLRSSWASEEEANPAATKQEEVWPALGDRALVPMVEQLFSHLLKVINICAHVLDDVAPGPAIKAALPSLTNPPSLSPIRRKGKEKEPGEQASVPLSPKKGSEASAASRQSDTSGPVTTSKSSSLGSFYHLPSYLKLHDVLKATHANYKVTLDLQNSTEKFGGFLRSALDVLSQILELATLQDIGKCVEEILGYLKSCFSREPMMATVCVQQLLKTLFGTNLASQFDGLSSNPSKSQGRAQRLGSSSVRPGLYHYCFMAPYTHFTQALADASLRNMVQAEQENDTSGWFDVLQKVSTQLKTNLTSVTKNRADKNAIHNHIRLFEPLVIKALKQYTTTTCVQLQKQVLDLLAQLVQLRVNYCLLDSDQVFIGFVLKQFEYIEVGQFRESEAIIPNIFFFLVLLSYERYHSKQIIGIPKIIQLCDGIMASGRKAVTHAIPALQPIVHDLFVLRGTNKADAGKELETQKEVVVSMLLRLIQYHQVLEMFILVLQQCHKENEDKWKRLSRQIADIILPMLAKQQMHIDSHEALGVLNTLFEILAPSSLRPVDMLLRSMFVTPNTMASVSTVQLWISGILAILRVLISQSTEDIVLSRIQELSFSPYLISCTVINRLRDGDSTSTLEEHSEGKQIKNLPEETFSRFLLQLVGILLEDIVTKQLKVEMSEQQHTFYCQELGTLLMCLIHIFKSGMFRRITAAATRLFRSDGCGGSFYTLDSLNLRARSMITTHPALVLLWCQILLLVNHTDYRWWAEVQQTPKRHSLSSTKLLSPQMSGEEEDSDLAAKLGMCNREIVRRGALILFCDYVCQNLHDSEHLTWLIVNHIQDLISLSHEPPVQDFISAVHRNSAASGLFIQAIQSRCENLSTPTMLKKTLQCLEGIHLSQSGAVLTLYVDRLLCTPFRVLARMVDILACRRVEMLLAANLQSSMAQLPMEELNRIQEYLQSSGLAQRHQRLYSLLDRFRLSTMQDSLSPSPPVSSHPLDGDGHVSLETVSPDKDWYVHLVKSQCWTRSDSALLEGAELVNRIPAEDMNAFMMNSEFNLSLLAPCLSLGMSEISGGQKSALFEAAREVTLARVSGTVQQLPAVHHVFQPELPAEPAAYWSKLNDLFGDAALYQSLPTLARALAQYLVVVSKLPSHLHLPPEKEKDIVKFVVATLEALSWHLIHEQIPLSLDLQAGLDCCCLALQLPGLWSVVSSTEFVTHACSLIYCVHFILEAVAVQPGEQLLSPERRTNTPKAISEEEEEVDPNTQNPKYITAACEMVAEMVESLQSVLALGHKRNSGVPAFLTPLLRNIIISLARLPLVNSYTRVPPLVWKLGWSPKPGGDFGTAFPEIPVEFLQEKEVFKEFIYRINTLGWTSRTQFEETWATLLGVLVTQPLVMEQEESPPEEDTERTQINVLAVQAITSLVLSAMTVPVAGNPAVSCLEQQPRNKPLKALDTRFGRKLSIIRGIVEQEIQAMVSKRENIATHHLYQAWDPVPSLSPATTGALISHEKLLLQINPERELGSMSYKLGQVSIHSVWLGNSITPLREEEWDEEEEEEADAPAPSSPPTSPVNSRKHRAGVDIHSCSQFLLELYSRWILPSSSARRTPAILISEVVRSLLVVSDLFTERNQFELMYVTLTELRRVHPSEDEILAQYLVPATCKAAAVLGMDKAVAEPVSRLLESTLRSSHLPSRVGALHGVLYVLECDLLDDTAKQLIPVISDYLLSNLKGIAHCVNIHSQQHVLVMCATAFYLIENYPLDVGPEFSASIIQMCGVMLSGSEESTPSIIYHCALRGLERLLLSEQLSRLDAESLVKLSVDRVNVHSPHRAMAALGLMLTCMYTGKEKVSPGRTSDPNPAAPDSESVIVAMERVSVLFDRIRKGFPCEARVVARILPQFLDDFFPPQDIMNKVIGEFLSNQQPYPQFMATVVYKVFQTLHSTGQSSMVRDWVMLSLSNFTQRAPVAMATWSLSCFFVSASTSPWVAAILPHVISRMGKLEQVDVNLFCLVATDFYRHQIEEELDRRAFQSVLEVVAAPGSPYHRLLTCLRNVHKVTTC

HeLa [8] = assay: Induction of EGFP fused Htt Q23 mutant exon 1 (unknown origin) degradation expressed in human HeLa cells assessed as HSP70/CHIP recruitment based proteosome mediated mHtt exon 1-Q23 degradation at 1 to 10 uM measured after 48 hrs by Western blot analysis; assay type: cell-based; conditions: dose 1-10 µM
[9] = Apparent permeability across apical to basolateral side in human Caco-2 cells at 10 uM; assay type: ADME, cell-based; conditions: for Papp A→B at 10 µM: Caco-2
HeLa [10] = assay: Induction of EGFP fused Htt Q145 mutant exon 1 (unknown origin) degradation expressed in human HeLa cells assessed as HSP70/CHIP recruitment based proteosome mediated mHtt exon 1-Q145 degradation at 10 uM measured after 24 to 48 hrs by Western blot analysis; assay type: cell-based; conditions: time 24-48 hrs
HeLa [11] = assay: Induction of EGFP fused Htt Q145 mutant exon 1 (unknown origin) degradation expressed in human HeLa cells assessed as HSP70/CHIP recruitment based proteosome mediated mHtt exon 1-Q145 degradation at 10 uM measured after 24 hrs by Western blot analysis; assay type: cell-based
HeLa [12] = assay: Induction of EGFP fused Htt Q145 mutant exon 1 (unknown origin) degradation expressed in human HeLa cells assessed as HSP70/CHIP recruitment based proteosome mediated mHtt exon 1-Q145 degradation at higher concentration measured after 24 hrs by Western blot analysis; assay type: cell-based
[13] = Ratio of drug concentration in brain to plasma in C57BL/6J mouse at 0.1 to 0.7 mg/kg, iv measured after 4 hrs; assay type: ADME, organism-based; conditions: brain and plasma, dose 0.1-0.7 mg/kg

Papp B→A at 10 µM [2]: 0.118 ×10⁻⁶ cm/s | efflux ratio at 10 µM [4]: 1.2 | Activity [7]: Dose-Dependent Effect | Papp A→B at 10 µM [9]: 0.098 ×10⁻⁶ cm/s
Compound: CN(C)c1ccc(/N=N/c2nc3ccc(OCCOCCOCCOCCOC45CC6CC(CC(C6)C4)C5)cc3s2)cc1
Activity (HeLa [1]): Active | Activity (HeLa [3]): inactive | Activity (HeLa [5]): 60% | Activity (HeLa [6]): inactive | Activity (HeLa [8]): inactive | Activity (HeLa [10]): Active

Papp B→A at 10 µM [2]: 0.196 ×10⁻⁶ cm/s | efflux ratio at 10 µM [4]: 0.19 | Papp A→B at 10 µM [9]: 1.03 ×10⁻⁶ cm/s
Compound: CC(C)C[C@H](NC(=O)[C@@H](O)[C@H](N)Cc1ccccc1)C(=O)NCCOCCOCCOc1ccc2nc(/N=N/c3ccc(N(C)C)cc3)sc2c1

Compound: CN(C)c1ccc(/N=N/c2nc3ccc(O)cc3s2)cc1
Activity (HeLa [11]): inactive

Compound: CN(C)c1ccc(/N=N/c2nc3ccc(OCCOCCOCCOCCOc4cccc5ccccc45)cc3s2)cc1
Activity (HeLa [12]): Active

Papp ([2]; caco-2, 10 µM): 0.241 10^-6 cm/s | Ratio ([4]; caco-2, 10 µM): 0.241 | Papp ([9]; caco-2, 10 µM): 2.46 10^-6 cm/s
Compound: CCCCCC(CCCCC)OCCOCCOCCOCCOc1ccc2nc(/N=N/c3ccc(N(C)C)cc3)sc2c1
Activity (HeLa [12]): Active

Compound: OCCOCCOCCOCCOC12CC3CC(CC(C3)C1)C2
Activity (HeLa [11]): inactive

Compound: CN(C)c1ccc(/N=N/c2nc3ccc(OCCOCCOCCOCCOC(c4ccccc4)c4ccccc4)cc3s2)cc1
Activity (HeLa [12]): Active

Papp B→A at 10 µM [2]: 1.25 ×10⁻⁶ cm/s | efflux ratio at 10 µM [4]: 0.235 | Kp at 4 h [13]: 0.13 | Papp A→B at 10 µM [9]: 5.32 ×10⁻⁶ cm/s
Compound: CN(C)c1ccc(/N=N/c2nc3ccc(OCCOCCOCCOCCOC45CC6CC7C8CC(CC74)CC5C8C6)cc3s2)cc1
Activity (HeLa [3]): 60%

Papp B→A at 10 µM [2]: 4.71 ×10⁻⁶ cm/s | Kp at 4 h [13]: 4.89
Compound: CN(C)c1ccc(/N=N/c2nc3ccc(OCCOCCOC45CC6CC(CC(C6)C4)C5)cc3s2)cc1
